From PMC7456963, “HPLC-Based Activity Profiling for Antiprotozoal Compounds in Croton gratissimus and Cuscuta hyalina” (Frontiers in Pharmacology, 2020)
“And” between values parts separate entries of the source, which are not always exact repeats. Equal entries are not always repeated. Where two headings read alike, the source gives them in different places.

What was measured:
[1] = system: P. falciparum NF54 erythrocytic stages; test: Activity against Plasmodium falciparum (3H-hypoxanthine incorporation); format: cell-based; settings: for Selectivity index (SI): IC50 in L6 cells divided by IC50 in P. falciparum: L6 cells vs P. falciparum NF54
Description: In vitro activity against the erythrocytic stages of P. falciparum was determined using a ^3H-hypoxanthine incorporation assay ([Desjardins et al., 1979]), using the drug sensitive NF54 strain ([Ponnudurai et al., 1981]). Compounds were dissolved in DMSO at 10 mg/ml and further diluted in medium before addition to parasite cultures incubated in RPMI 1640 medium without hypoxanthine, supplemented with HEPES (5.94 g/L), NaHCO3 (2.1 g/L), neomycin (100 U/ml), Albumax^R (5 g/L), and washed human red cells A^+ at 2.5% haematocrit (0.3% parasitemia). Serial drug dilutions of 11 three-fold dilution steps covering a range from 100 to 0.002 μg/ml were prepared. The 96-well plates were incubated in a humidified atmosphere at 37°C; 4% CO2, 3% O2, 93% N2. After 48 h, 50 μl of ^3H-hypoxanthine (=0.5 μCi) was added to each well of the plate. The plates were incubated for a further 24 h under the same conditions. The plates were then harvested with a Betaplate™ cell harvester (Wallac, Zurich, Switzerland), the red blood cells transferred onto a glass fibre filter, and lysed with distilled water. The dried filters were inserted into a plastic foil with 10 ml of scintillation fluid and counted in a Betaplate™ liquid scintillation counter (Wallac, Zurich, Switzerland). IC50 values were calculated from sigmoidal inhibition curves by linear regression using Microsoft Excel. Chloroquine (Sigma C6628) was used as control. Assays were performed in two independent replicates at least.

[2] = Cytotoxicity to macrophages determined in parallel to the intramacrophage assay; format: cell-based; settings: CDI, surviving, uninfected mouse peritoneal macrophages
Description: (§1) Macrophages were isolated from the mouse (CDI) peritoneal cavity ([Zhang et al., 2008]) using 2% starch solution as eliciting agent injected 2 day prior to cell harvest. Animal work was carried out according to the rules and regulations for the protection of animal rights (“Tierschutzverordnung”) of the Swiss “Bundesamt für Veterinärwesen” (License number 2374). Mouse peritoneal macrophages (4 × 10^4 in 100 µL RPMI 1640 medium with 10% heat-inactivated FBS) were seeded into wells of a 96-well plate. After 24 h, 2 × 10^5 amastigote L. donovani in 100 µL were added. The amastigotes were taken from an axenic amastigote culture grown at pH 5.4. The medium containing free amastigote forms was removed after 24 h and replaced with fresh medium. The washing step was repeated and afterward the serial drug dilution was prepared with at least 6 dilution steps. Compounds were dissolved in DMSO at 10 mg/ml and further diluted in medium. After 96 h of incubation at 37°C under a 5% CO2 atmosphere, the medium was removed, and cells were fixed by adding 50 µl 4% formaldehyde solution followed by a staining with a 5 µM DRAQ5 solution. Plates were imaged in ImageXpress XLS (MD) microscope using a 20× air objective (635 nm excitation: 690/50 emission). 9 images were collected per well. Automated image analysis was performed with a script developed on Meta Xpress Software (MD). Three outputs were provided for each well: i) number of host cell nuclei; ii) numbers of infected and non-infected host cells; iii) number of parasite nuclei per infected host cell. The IC50 values were calculated based on the infection rate and the numbers of intracellular amastigotes. The cytotoxicity to macrophages was determined in parallel, and IC50 values were calculated based on the numbers of surviving, uninfected macrophages. Miltefosine was used as control. Assays were performed in two independent replicates at least.

[3] = system: L. donovani strain MHOM/ET/67/L82 axenic amastigotes; test: Activity against Leishmania donovani axenic amastigotes (resazurin); format: cell-based; settings: for Selectivity index (SI): IC50 in L6 cells divided by IC50 in L. donovani axenic amastigotes: L6 cells vs axenic L. donovani; for IC50: MHOM/ET/67/L82, pH 5.4, 70 h + 2 h resazurin, mean ± absolute deviation, at least two replicates, read-out: IC50 L. donovani Axenic
Description: Amastigotes of L. donovani strain MHOM/ET/67/L82 were grown under an atmosphere of 5% CO2 in air in axenic culture at 37°C in SM medium ([Cunningham, 1977]) at pH 5.4 supplemented with 10% heat-inactivated fetal bovine serum. 50 µL of culture medium was added in the wells of a 96-well plate and serial drug dilutions of eleven three-fold dilution steps covering a final range from 100 to 0.002 μg/ml were prepared. 50 µL culture medium with 2 × 10^5 amastigotes from axenic culture were added to each well. After 70 h of incubation the plates were inspected under an inverted microscope to assure growth of the controls and sterile conditions. 10 μl of resazurin (12.5 mg resazurin dissolved in 100 ml distilled water) were added to each well and the plates incubated for another 2 h. Then the plates were read with a Spectramax Gemini XS microplate fluorometer (Molecular Devices Cooperation, Sunnyvale, CA, USA) using an excitation wavelength of 536 nm and an emission wavelength of 588 nm. Data were analyzed using the software Softmax Pro (Molecular Devices Cooperation, Sunnyvale, CA, USA). Decrease of fluorescence (= inhibition) was expressed as percentage of the fluorescence of untreated control cultures and plotted against the drug concentrations. From the sigmoidal inhibition curves the IC50 values were calculated. Miltefosine was used as positive control drug. Assays were performed in two independent replicates at least.

[4] = system: L. donovani amastigotes in mouse peritoneal macrophages; test: Activity against Leishmania donovani intramacrophage amastigotes (high-content imaging); format: cell-based; settings: amastigotes in mouse peritoneal macrophages, 96 h, read-out: IC50 L. donovani Intramacrophage
Description: as §1

[5] = system: T. b. rhodesiense STIB 900 bloodstream forms; test: Activity against Trypanosoma brucei rhodesiense STIB900 (resazurin); format: cell-based; settings: for Selectivity index (SI): IC50 in L6 cells divided by IC50 in T. b. rhodesiense: L6 cells vs T. b. rhodesiense STIB 900; for IC50: STIB 900 bloodstream forms, 70 h + resazurin, mean ± absolute deviation
Description: The stock was originally isolated from a patient and adapted to axenic culture conditions after several mouse passages and cloned. Minimum Essential Medium (50 µl) supplemented with 25 mM HEPES, 1 g/L additional glucose, 1% MEM non-essential amino acids (100×), 0.2 mM 2-mercaptoethanol, 1 mM Na-pyruvate ([Baltz et al., 1985]) and 15% heat inactivated horse serum was added to each well of a 96-well microtiter plate. Serial drug dilutions of eleven 3-fold dilution steps covering a range from 100 to 0.002 μg/ml were prepared. Then 4 × 10^3 bloodstream forms of T. b. rhodesiense STIB 900 in 50 µL were added to each well and the plate incubated for 70 h at 37°C and under a 5% CO2 atmosphere. 10 µL resazurin solution (resazurin, 12.5 mg in 100 ml double-distilled water) was then added to each well and incubation continued for a further 2–4 h ([Räz et al., 1997]). Plates were read with a Spectramax Gemini XS microplate fluorometer (Molecular Devices Cooperation, Sunnyvale, CA, USA) using an excitation wavelength of 536 nm and an emission wavelength of 588 nm. […] Melarsoprol (Arsobal Sanofi-Aventis, received from WHO) was used as control. Assays were performed in two independent replicates at least.

[6] = In vitro cytotoxicity with L-6 cells (resazurin); format: cell-based, rat; settings: rat; L6 cells, 70 h + 2 h resazurin; mean ± absolute deviation
Description: Assays were performed in 96-well microtiter plates, each well containing 100 µl of RPMI 1640 medium supplemented with 1% L-glutamine (200 mM) and 10% fetal bovine serum, and 4000 L-6 cells (a primary cell line derived from rat skeletal myoblasts) ([Ahmed et al., 1994]). Serial drug dilutions of 11 three-fold dilution steps covering a range from 100 to 0.002 μg/ml were prepared 24 h post seeding L-6 cells. The plates were incubated for 70 h and inspected under an inverted microscope to assure growth of the controls and sterile conditions. 10 µl of resazurin was then added to each well and the plates incubated for another 2 h. Then the plates were read with a Spectramax Gemini XS microplate fluorometer (Molecular Devices Cooperation, Sunnyvale, CA, USA) using an excitation wavelength of 536 nm and an emission wavelength of 588 nm. The IC50 values were calculated by linear regression and four-parameter logistic regression from the sigmoidal dose inhibition curves using SoftmaxPro software (Molecular Devices Cooperation, Sunnyvale, CA, USA). Podophyllotoxin (Sigma P4405) was used as positive control. All assays were performed in two independent replicates at least. Activities of all compounds were expressed in µM using the formula: […]

[7] = Leishmania donovani, pH 5.4, axenic amastigotes
[8] = Leishmania donovani, Peritoneal macrophage
[9] = Plasmodium falciparum, NF54, 72 h, NF54 drug sensitive strain, erythrocytic stages, 72 h, mean ± absolute deviation, read-out: IC50 P. falciparum
[10] = NF54 drug sensitive strain, erythrocytic stages, 72 h, mean ± absolute deviation
[11] = NF54 drug sensitive strain, erythrocytic stages, 72 h, mean ± absolute deviation, read-out: IC50 P. falciparum

| Molecule | IC50 [3, 7] [µM] | IC50 [4, 8] [µM] | IC50 ([5]; Trypanosoma brucei, 70 h) [µM] | IC50 [1, 9] [µM] | IC50 [1, 11] [µM] | IC50 ([1]; Plasmodium falciparum, NF54, 72 h, read-out: IC50 P. falciparum) [µM] | Selectivity index (SI): IC50 in L6 cells divided by IC50 in P. falciparum [1] | IC50 ([1]; Plasmodium falciparum, NF54, 72 h, read-out: IC50 P. falciparum, NF54 drug sensitive strain, erythrocytic stages, 72 h, mean ± absolute deviation) [µM] | IC50 ([1]; read-out: IC50 P. falciparum, NF54 drug sensitive strain, erythrocytic stages, 72 h, mean ± absolute deviation) [µM] | IC50 at 96 h [2] [µM] | Selectivity index (SI): IC50 in L6 cells divided by IC50 in L. donovani axenic amastigotes [3] | Selectivity index (SI): IC50 in L6 cells divided by IC50 in T. b. rhodesiense [5] | IC50 at 70 h [6] [µM] | IC50 P. falciparum [1, 10] | IC50 ([3]; axenic amastigotes) | IC50 [4] [µM] | IC50 [5] [µM] |
| --- | --- | --- | --- | --- | --- | --- | --- | --- | --- | --- | --- | --- | --- | --- | --- | --- | --- |
| COc1cc(-c2oc3cc(O)cc(O)c3c(=O)c2O)ccc1O [Compound 11, Isorhamnetin] | 21.7 ± 7.9 | > 210 | 25.9 ± 5.4 |  |  |  | 6.0 | ~20 | 21.6 ± 0.7 | > 199 | 6.0 | 5.0 | 130 ± 58.7 |  |  |  |  |
| COc1cc(C(=O)O)ccc1O [Compound 7, 3-Methoxy-4-hydroxybenzoic acid] | 153 ± 45.5 | > 595 | 38.6 ± 5.9 | 138 ± 12.2 |  |  |  |  |  | > 500 |  |  | 595 | least active |  |  |  |
| COc1cc([C@@H]2c3cc4c(cc3[C@H](O)[C@H]3COC(=O)[C@H]23)OCO4)cc(OC)c1OC [Podophyllotoxin, reference compound] |  |  |  |  |  |  |  |  |  |  |  |  | 0.03 ± 0.005 |  |  |  |  |
| CCN(CC)CCCC(C)Nc1ccnc2cc(Cl)ccc12 (stereo not drawn) [Chloroquine, reference compound] |  |  |  |  |  | 0.01 ± 0.002 |  |  |  |  |  |  |  |  |  |  |  |
| (+)-(7S,7′S,8R,8′R)-Pinoresinol [Compound 10] |  |  |  |  | > 140 |  |  |  |  |  | 1.6 | 2.1 |  | least active | > 150 µM and 151 µM | > 279 | 116.8 ± 0.3 |
| COc1ccc(-c2oc3cc(O)cc(O)c3c(=O)c2OC)cc1OC [Compound 1, Quercetin-3,3′,4′-trimethylether] | 15 to 22 | > 79.9 | 55.1 ± 13.2 | 42.1 ± 12.5 |  |  | 4.4 |  |  | 154 ± 19.3 | 9.8 | 3.4 |  |  |  |  |  |

Continued, in another order:

| IC50 [3, 7] [µM] | IC50 [4, 8] [µM] | IC50 ([5]; Trypanosoma brucei, 70 h) [µM] | IC50 [1, 9] [µM] | IC50 [1, 11] [µM] | IC50 ([1]; Plasmodium falciparum, NF54, 72 h, read-out: IC50 P. falciparum) [µM] | Molecule | Selectivity index (SI): IC50 in L6 cells divided by IC50 in P. falciparum [1] | IC50 ([1]; Plasmodium falciparum, NF54, 72 h, read-out: IC50 P. falciparum, NF54 drug sensitive strain, erythrocytic stages, 72 h, mean ± absolute deviation) [µM] | IC50 ([1]; read-out: IC50 P. falciparum, NF54 drug sensitive strain, erythrocytic stages, 72 h, mean ± absolute deviation) [µM] | IC50 at 96 h [2] [µM] | Selectivity index (SI): IC50 in L6 cells divided by IC50 in L. donovani axenic amastigotes [3] | Selectivity index (SI): IC50 in L6 cells divided by IC50 in T. b. rhodesiense [5] | IC50 at 70 h [6] [µM] | IC50 P. falciparum [1, 10] | IC50 ([3]; axenic amastigotes) | IC50 [4] [µM] | IC50 [5] [µM] |
| --- | --- | --- | --- | --- | --- | --- | --- | --- | --- | --- | --- | --- | --- | --- | --- | --- | --- |
| 20.8 ± 1.7 | > 115 | 36.4 ± 8.7 | 53.1 ± 7.7 |  |  | O=c1c(O)c(-c2ccc(O)cc2)oc2cc(O)cc(O)c12 [Compound 13, Kaempferol] | 2.1 |  |  | 151 ± 18.8 | 5.3 | 3.1 |  |  |  |  |  |
| 18.9 ± 2.6 | > 84.2 | 37.5 ± 6.1 | ~20 | 16.3 ± 2.7 |  | CC(=O)O[C@H]1[C@H]2c3c(ccc4c(=O)cc(-c5ccccc5)oc34)O[C@H]2OC1(C)C [Compound 12, (-)-(3′′S,4′′R,5′′S)-Pseudosemiglabrin] | 4.8 |  |  | 145 ± 10.5 | 4.1 | 2.1 |  |  |  |  |  |
| 0.5 ± 0.2 | 6.6 ± 0.3 |  |  |  |  | CCCCCCCCCCCCCCCCOP(=O)([O-])OCC[N+](C)(C)C [Miltefosine, reference compound] |  |  |  | > 24.1 |  |  |  |  |  |  |  |
| 4.5 ± 0.3 | > 66.7 | 2.4 ± 0.5 | 7 to 8 | 7.3 ± 0.6 |  | COc1cc(O)c2c(=O)c(OC)c(-c3ccc(O)c(O)c3)oc2c1 [Compound 6, Quercetin-3,7-dimethylether] | 7.6 |  |  | 102 ± 49.7 | 12.3 | 23.2 |  |  |  |  |  |
| 8.2 ± 1.6 | > 95.9 | 11.2 ± 0.2 | 7 to 8 | 7.8 ± 0.9 |  | COc1cc(O)c2c(=O)c(OC)c(-c3ccc(OC)c(O)c3)oc2c1 [Compound 2, Ayanin] | 12.9 |  |  | 128 ± 3.5 | 12.2 | 8.9 |  |  |  |  |  |
